Data taken from patent publication US11708344B2, “Flavone derivatives for the treatment and prophylaxis of hepatitis B virus disease” (Hoffmann-La Roche Inc., priority 2018, dated 2023).

Experiments:
[1] = tested on: HBeAg (surrogate marker for cccDNA) in HepDES19 cells; assay: Engineered HepDES19 primary screen assay (HBeAg ELISA); type: cell-based, HBV; settings: Hepatitis B virus, HepDES19, 120 h, read-out: IC50 (HBeAg level, HepDES19 primary screen assay), HepDES19 cells, 5 days compound incubation, HBeAg ELISA
Summary of the method: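 HepDES19 cells were induced by Tet withdrawal for 8 days, then treated with half-log compound dilutions (1% DMSO final) for 5 days at 37 °C. HBeAg was measured by ELISA as the cccDNA surrogate, viability by CCK-8, and IC50 from a 4-parameter logistic fit.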

[2] = Human microsome stability assay; type: in vitro ADME; settings: human liver microsomes, 1 μM test compound, 0.5 mg/mL microsomal protein, 37° C., pH 7.4, 0-30 minutes
Protocol: The human microsomal stability assay is used for early assessment of metabolic stability of a test compound in human liver microsomes.
Human liver microsomes (Cat. NO.: 452117, Corning, USA; Cat. NO.: H2610, Xenotech, USA) were preincubated with test compound for 10 minutes at 37° C. in 100 mM potassium phosphate buffer, pH 7.4. The reactions were initiated by adding NADPH regenerating system. The final incubation mixtures contained 1 μM test compound, 0.5 mg/mL liver microsomal protein, 1 mM MgCl2, 1 mM NADP, 1 unit/mL isocitric dehydrogenase and 6 mM isocitric acid in 100 mM potassium phosphate buffer, pH 7.4. After incubation times of 0, 3, 6, 9, 15 and 30 minutes at 37° C., 300 μL of cold ACN (including internal standard) was added to 100 μL incubation mixture to terminate the reaction. Following precipitation and centrifugation, the amount of compound remaining in the samples was determined by LC-MS/MS. Controls of no NADPH regenerating system at zero and 30 minutes were also prepared and analyzed.

SMILES	IC50 [1] [µM]	Clearance of Human microsome [2] [L/h/kg]
CC(C)(Oc1cc(Br)ccc1-c1cc(=O)c2cccc(Cl)c2o1)C(=O)O [Example A070, 2-[5-bromo-2-(8-chloro-4-oxo-chromen-2-yl)phenoxy]-2-methyl-propanoic acid]	0.63	0.369
CS(=O)(=O)NC(=O)[C@H]1C[C@@H](OCCOc2cc(C(F)(F)F)ccc2-c2cc(=O)c3cccc(Cl)c3o2)C1 [Example C121, Cis-3-[2-[2-(8-chloro-4-oxo-chromen-2-yl)-5-(trifluoromethyl)phenoxy]ethoxy]-N-methylsulfonyl-cyclobutanecarboxamide]	5.89	0.521
Cc1cc(-c2cc(=O)c3cccc(Cl)c3o2)c(OCC(C)(C)C(=O)O)cc1Cl [Example A064, 3-[5-chloro-2-(8-chloro-4-oxo-chromen-2-yl)-4-methyl-phenoxy]-2,2-dimethyl-propanoic acid]	9.59	0.57
O=c1cc(-c2ncc(Br)cc2OCCO[C@H]2C[C@H](C(=O)O)C2)oc2c(Cl)cccc12 [Example C027]	1.8	0.369
Cc1ccc(OCCO[C@H]2C[C@@H](C(=O)O)C2)c(-c2cc(=O)c3cccc(Cl)c3o2)c1 [Example C050-A, Cis-3-[2-[2-(8-chloro-4-oxo-chromen-2-yl)-4-methyl-phenoxy]ethoxy]cyclobutanecarboxylic acid]	15.6	0.369
Cc1c(-c2ccc(C(F)(F)F)cc2OCCC(=O)O)oc2c(Cl)cccc2c1=O [Example A034, 3-[2-(8-chloro-3-methyl-4-oxo-chromen-2-yl)-5-(trifluoromethyl)phenoxy]propanoic acid]	13.4	0.369
COc1ccc(OC[C@H]2C[C@H](C(=O)O)C2)c(-c2cc(=O)c3cccc(Cl)c3o2)c1 [Example B027-B]	11	0.369
COc1cc(O[C@H]2C[C@@H](C(=O)NS(C)(=O)=O)C2)c(-c2cc(=O)c3cccc(Cl)c3o2)cc1C [Example B050-A, Cis-3-[2-(8-chloro-4-oxo-chromen-2-yl)-5-methoxy-4-methyl-phenoxy]-N-methylsulfonyl-cyclobutanecarboxamide]	7.03	0.369
O=C(O)[C@H]1C[C@H](Oc2cc(C(F)(F)F)ccc2-c2cc(=O)c3cccc(Cl)c3o2)CN1S(=O)(=O)c1ccccc1 [Example B087, (2R,4S)-1-(benzenesulfonyl)-4-[2-(8-chloro-4-oxo-chromen-2-yl)-5-(trifluoromethyl)phenoxy]pyrrolidine-2-carboxylic acid]	3	0.369
O=C(O)C1CCC(OCCCOc2cc(Br)ccc2-c2cc(=O)c3cccc(Cl)c3o2)C1 (centres unmarked) [Example C105, 3-[3-[5-bromo-2-(8-chloro-4-oxo-chromen-2-yl)phenoxy]propoxy]cyclopentanecarboxylic acid]	1.74	0.369
CC(C)c1ccc(-c2cc(=O)c3cccc(Cl)c3o2)c(O[C@H]2C[C@H](C(=O)O)C2)c1 [Example B020-B, Trans-3-[2-(8-chloro-4-oxo-chromen-2-yl)-5-isopropyl-phenoxy]cyclobutanecarboxylic acid]	9.44	0.508
Cc1cc(OCCC(=O)O)c(-c2cc(=O)c3cccc(Cl)c3o2)cc1OC(F)(F)F [Example A019, 3-[2-(8-chloro-4-oxo-chromen-2-yl)-5-methyl-4-(trifluoromethoxy)phenoxy]propanoic acid]	2.96	0.369
COc1cc(OC2CC(C(=O)O)C2)c(-c2cc(=O)c3c(O)ccc(Cl)c3o2)cc1OC (centres unmarked) [Example B042, 3-[2-(8-chloro-5-hydroxy-4-oxo-chromen-2-yl)-4,5-dimethoxy-phenoxy]cyclobutanecarboxylic acid]	0.865	0.369
O=c1cc(-c2cc3c(cc2OCCO[C@H]2C[C@@H](C(=O)O)C2)OCCO3)oc2c(Cl)cccc12 [Example C074, Cis-3-[2-[[7-(8-chloro-4-oxo-chromen-2-yl)-2,3-dihydro-1,4-benzodioxin-6-yl]oxy]ethoxy]cyclobutanecarboxylic acid]	7.28	0.369
O=C(O)[C@H]1CCCN1C(=O)CCOc1cc(Br)ccc1-c1cc(=O)c2cccc(Cl)c2o1 [Example A075, (2R)-1-[3-[5-bromo-2-(8-chloro-4-oxo-chromen-2-yl)phenoxy]propanoyl]pyrrolidine-2-carboxylic acid]	2.85	0.369
O=c1cc(-c2cc(C(F)(F)F)c(Br)cc2OCCO[C@H]2C[C@@H](C(=O)O)C2)oc2c(Cl)cccc12 [Example C042-A]	12.7	0.454
Cc1ccc(-c2cc(=O)c3cccc(Cl)c3o2)c(OCCO[C@H]2C[C@H](C(=O)O)C2)c1 [Example C038-B, Trans-3-[2-[2-(8-chloro-4-oxo-chromen-2-yl)-5-methyl-phenoxy]ethoxy]cyclobutanecarboxylic acid]	1.53	0.369
COc1cc(-c2cc(=O)c3cccc(Cl)c3o2)c(OCCO[C@H]2C[C@@H](C(=O)O)C2)cc1O [Example C076, Cis-3-[2-[2-(8-chloro-4-oxo-chromen-2-yl)-5-hydroxy-4-methoxy-phenoxy]ethoxy]cyclobutanecarboxylic acid]	0.502	0.369
CS(=O)(=O)NC(=O)[C@H]1C[C@H](Oc2cc(Br)ccc2-c2cc(=O)c3cccc(Cl)c3o2)C1 [Example B044-B, trans-3-[5-bromo-2-(8-chloro-4-oxo-chromen-2-yl)phenoxy]-N-methylsulfonyl-cyclobutanecarboxamide]	3.72	0.369
O=C(O)COCCCOc1cc(C(F)(F)F)ccc1-c1cc(=O)c2cccc(Cl)c2o1 [Example C001, 2-[3-[2-(8-chloro-4-oxo-chromen-2-yl)-5-(trifluoromethyl)phenoxy]propoxy]acetic acid]	3.05	0.369
O=c1cc(-c2ccc(C(F)(F)F)cc2OCCO[C@H]2C[C@@H](C(=O)O)C2)oc2c(Cl)ccc(O)c12 [Example C099, cis-3-[2-[2-(8-chloro-5-hydroxy-4-oxo-chromen-2-yl)-5-(trifluoromethyl)phenoxy]ethoxy]cyclobutanecarboxylic acid]	15.7	0.427
Cc1cc(-c2cc(=O)c3cccc(Cl)c3o2)c(OCC(=O)N2CC[C@@H](O)C2)cc1Br [Example A089, 2-[4-bromo-2-[2-[(3R)-3-hydroxypyrrolidin-1-yl]-2-oxo-ethoxy]-5-methyl-phenyl]-8-chloro-chromen-4-one]	11.9	0.401
COc1cc(Cl)c2oc(-c3ccc(C(F)(F)F)cc3OCCC(=O)O)cc(=O)c2c1 [Example A033, 3-[2-(8-chloro-6-methoxy-4-oxo-chromen-2-yl)-5-(trifluoromethyl)phenoxy]propanoic acid]	0.479	0.369
CS(=O)(=O)NC(=O)[C@H]1C[C@@H](Oc2cc(Br)ccc2-c2cc(=O)c3cccc(Cl)c3o2)C1 [Example B044-A, cis-3-[5-bromo-2-(8-chloro-4-oxo-chromen-2-yl)phenoxy]-N-methylsulfonyl-cyclobutanecarboxamide]	4.62	0.369
CS(=O)(=O)NC(=O)[C@H]1C[C@H](Oc2cc(OC(F)(F)F)ccc2-c2cc(=O)c3cccc(Cl)c3o2)C1 [Example B047-B, Trans-3-[2-(8-chloro-4-oxo-chromen-2-yl)-5-(trifluoromethoxy)phenoxy]-N-methylsulfonyl-cyclobutanecarboxamide]	3.76	0.369
COc1cc(OCCO[C@H]2C[C@@H](C(=O)O)C2)c(-c2cc(=O)c3cccc(Cl)c3o2)cc1OC(F)(F)F [Example C089, Cis-3-[2-[2-(8-chloro-4-oxo-chromen-2-yl)-5-methoxy-4-(trifluoromethoxy)phenoxy]ethoxy]cyclobutanecarboxylic acid]	3.78	0.369
Cc1ccc(-c2cc(=O)c3cccc(Cl)c3o2)c(OCCCC(=O)O)c1 [Example A059, 4-[2-(8-chloro-4-oxo-chromen-2-yl)-5-methyl-phenoxy]butanoic acid]	0.622	0.5
CC(C)(COc1cc(Br)ccc1-c1cc(=O)c2cccc(Cl)c2o1)CO[C@H]1C[C@H](C(=O)O)C1 [Example C110-B, trans-3-[3-[5-bromo-2-(8-chloro-4-oxo-chromen-2-yl)phenoxy]-2,2-dimethyl-propoxy]cyclobutanecarboxylic acid]	3.74	0.369
